According to ChEMBL document CHEMBL1138824, “Design and synthesis of hydroxyethylene-based peptidomimetic inhibitors of human beta-secretase” (J Med Chem, 2004):
Residues, ends and D or L forms follow the SMILES beside them.

These compounds were tested on HEK293 (assay: Effective concentration evaluated in HEK293 cells). Settings: Homo sapiens.
Type: functional, cell-based
For CCCN(CCC)C(=O)c1cccc(C(=O)N[C@@H](Cc2cc(F)cc(F)c2)[C@@H](O)C[C@@H](C)C(=O)NCC(C)C)c1, the EC50 was 3000 nM. For CC(C)[C@H](NC(=O)C[C@H](O)[C@H](Cc1cc(F)cc(F)c1)NC(=O)C(O)c1ccccc1-c1ccccc1)C(=O)N[C@H]1C[C@@H](C(=O)O)C[C@@H](C(=O)O)C1 (some centres undefined), the EC50 was over 10000 nM. CCCN(CCC)C(=O)c1cccc(C(=O)N[C@@H](Cc2cc(F)cc(F)c2)[C@@H](O)CC(=O)N[C@H](C(=O)N[C@H]2C[C@@H](C(=O)O)C[C@@H](C(=O)O)C2)C(C)C)c1 gave an EC50 of 1000 nM.

These compounds were tested against Beta-secretase (BACE) (Homo sapiens, UniProt Q9Y5Z0+P56817) (assay: Inhibition of human beta secretase in MBP-C125 assay.). Settings: not given.
Type: protein assay
In the case of CCCN(CCC)C(=O)c1cccc(C(=O)N[C@@H](Cc2cc(F)cc(F)c2)[C@@H](O)C[C@@H](CC)C(=O)N[C@H]2C[C@@H](OC)C[C@@H](OC)C2)c1, the IC50 is reported as 6600 nM. In the case of CCCN(CCC)C(=O)c1cccc(C(=O)N[C@@H](Cc2cc(F)cc(F)c2)[C@@H](O)C[C@@H](C)C(=O)NCC(C)C)c1, the IC50 is reported as 30 nM. CCCN(CCC)C(=O)c1cccc(C(=O)N[C@@H](Cc2cc(F)cc(F)c2)[C@@H](O)C[C@@H](CC)C(=O)NCCCCC(=O)O)c1 showed an IC50 of 400 nM. CCCN(CCC)C(=O)c1cccc(C(=O)N[C@@H](Cc2cc(F)cc(F)c2)[C@@H](O)C[C@@H](CC)C(=O)NCCCCCC(=O)O)c1 gave an IC50 of 240 nM. Compound CC(C)C[C@H](NC(=O)C(O)c1cccc2ccccc12)[C@@H](O)C[C@H](C(=O)N[C@@H](C)C(=O)N[C@@H](CCC(=O)O)C(=O)N[C@@H](Cc1ccccc1)C(=O)O)C(C)C (some centres undefined) has an IC50 of 7500 nM. For CCCN(CCC)C(=O)c1cccc(C(=O)N[C@@H](Cc2cc(F)cc(F)c2)[C@@H](O)C[C@@H](CC)C(=O)NCCCC(=O)O)c1, the IC50 was 310 nM. In the case of CSCC[C@H](NC(=O)[C@@H](NC(=O)OC(C)(C)C)C(C)C)C(=O)N[C@@H](CC(C)C)[C@@H](O)C[C@@H](C)C(=O)N[C@H](C(=O)NCc1ccccc1)C(C)C, the IC50 is reported as 3 nM. CC(C)C[C@H](NC(=O)C(O)c1cccc2ccccc12)[C@@H](O)CC(=O)N[C@H](C(=O)N[C@@H](C)C(=O)N[C@@H](CCC(=O)O)C(=O)N[C@@H](Cc1ccccc1)C(=O)O)C(C)C (some centres undefined) (HELM PEPTIDE1{[O=C(C(O)c1cccc2ccccc12)[*:2]].[CC(C)C[C@H](N[*:1])[C@@H](O)CC(=O)[*:2]].V.A.E.F}$$$$V2.0) was tested, and the IC50 was 4000 nM. For CC(C)[C@H](NC(=O)C[C@H](O)[C@H](Cc1cc(F)cc(F)c1)NC(=O)C(O)c1ccccc1-c1ccccc1)C(=O)N[C@H]1C[C@@H](C(=O)O)C[C@@H](C(=O)O)C1 (some centres undefined), the IC50 was 20 nM. With CCCN(CCC)C(=O)c1cccc(C(=O)N[C@@H](Cc2cc(F)cc(F)c2)[C@@H](O)C[C@@H](CC)C(=O)NCCCCCCCC(=O)OC)c1 the IC50 was 410 nM. CCCN(CCC)C(=O)c1cccc(C(=O)N[C@@H](Cc2cc(F)cc(F)c2)[C@@H](O)C[C@@H](CC)C(=O)NCCCCCCCC(=O)O)c1 showed an IC50 of 200 nM. CCCN(CCC)C(=O)c1cccc(C(=O)N[C@@H](Cc2cc(F)cc(F)c2)[C@@H](O)C[C@@H](CC)C(=O)NC[C@H]2CC[C@H](C(=O)O)CC2)c1 showed an IC50 of 50 nM. CCCN(CCC)C(=O)c1cccc(C(=O)N[C@@H](Cc2cc(F)cc(F)c2)[C@@H](O)C[C@@H](C)C(=O)NC[C@H]2CC[C@H](C(=O)O)CC2)c1 gave an IC50 of 26 nM. For CCCN(CCC)C(=O)c1cccc(C(=O)N[C@@H](Cc2cc(F)cc(F)c2)[C@@H](O)C[C@@H](Cc2ccccc2)C(=O)NC[C@H]2CC[C@H](C(=O)O)CC2)c1, the IC50 was 27000 nM. With CCCN(CCC)C(=O)c1cccc(C(=O)N[C@@H](Cc2cc(F)cc(F)c2)[C@@H](O)CCC(=O)NC[C@H]2CC[C@H](C(=O)O)CC2)c1 the IC50 was 400 nM. CCCN(CCC)C(=O)c1cccc(C(=O)N[C@@H](Cc2cc(F)cc(F)c2)[C@@H](O)C[C@@H](CC(C)C)C(=O)NC[C@H]2CC[C@H](C(=O)O)CC2)c1 was tested, and the IC50 was 310 nM. With CCCN(CCC)C(=O)c1cccc(C(=O)N[C@@H](Cc2cc(F)cc(F)c2)[C@@H](O)C[C@@H](CC)C(=O)NCCC(=O)O)c1 the IC50 was 2800 nM. For CCCN(CCC)C(=O)c1cccc(C(=O)N[C@@H](Cc2cc(F)cc(F)c2)[C@@H](O)CC(=O)N[C@H](C(=O)N[C@H]2C[C@@H](C(=O)O)C[C@@H](C(=O)O)C2)C(C)C)c1, the IC50 was 1 nM. CCCN(CCC)C(=O)c1cccc(C(=O)N[C@@H](Cc2cc(F)cc(F)c2)[C@@H](O)C[C@@H](CC)C(=O)NCc2ccccc2)c1 showed an IC50 of 1400 nM. CCC[C@H](C[C@H](O)[C@H](Cc1cc(F)cc(F)c1)NC(=O)c1cccc(C(=O)N(CCC)CCC)c1)C(=O)NC[C@H]1CC[C@H](C(=O)O)CC1 showed an IC50 of 45 nM. CSCC[C@H](NC(=O)[C@@H](NC(C)=O)C(C)C)C(=O)N[C@@H](CC(C)C)[C@@H](O)C[C@H](C(=O)N[C@@H](C)C(=O)N[C@@H](CCC(=O)O)C(=O)N[C@@H](Cc1ccccc1)C(=O)O)C(C)C (HELM PEPTIDE1{[ac].V.M.[CC(C)C[C@H](N[*:1])[C@@H](O)C[C@H](C(=O)[*:2])C(C)C].A.E.F}$$$$V2.0) showed an IC50 of 30 nM.
